Assay results taken from US7534785B2, “3,6-dihydro-2-oxo-6H-1,3,4,-thiadiazine derivatives” (Merck Patent Gesellschaft, priority 2005, dated 2009).

Biological target: T1, Met kinase (Homo sapiens, UniProt P08581)
T1 construct: 6His (N); purchased Upstate 14-526; host or cells: Sf21 insect cells (S. frugiperda), baculovirus
Assay: Met kinase inhibition, flashplate method
Assay type: biochemical
Settings: 1 μM ATP, substrate pAGLT, 3 hrs at room temperature, read-out: IC50 (enzyme)
Text: According to the manufacturer's data (Met, active, upstate, catalogue No. 14-526), Met kinase is expressed for the purposes of protein production in insect cells (Sf21; S. frugiperda) and subsequent affinity-chromatographic purification as “N-terminal 6His-tagged” recombinant human protein in a baculovirus expression vector.
The test plates used are 96-well Flashplate® microtitre plates from Perkin Elmer (Cat. No. SMP200). The components of the kinase reaction described below are pipetted into the assay plate. The Met kinase and the substrate poly Ala-Glu-Lys-Tyr, (pAGLT, 6:2:5:1), are incubated for 3 hrs at room temperature with radioactively labelled ^33P-ATP in the presence and absence of test substances in a total volume of 100 μl. The reaction is terminated using 150 μl of a 60 mM EDTA solution. After incubation for a further 30 min at room temperature, the supernatants are filtered off with suction, and the wells are washed three times with 200 μl of 0.9% NaCl solution each time. The measurement of the bound radioactivity is carried out by means of a scintillation measuring instrument (Topcount NXT, Perkin-Elmer).
The full value used is the inhibitor-free kinase reaction. This should be approximately in the range 6000-9000 cpm. The pharmacological zero value used is staurosporin in a final concentration of 0.1 mM. The inhibitory values (IC50) are determined using the RS1_MTS program.
Kinase Reaction Conditions per Well: • 30 μl of assay buffer • 10 μl of substance to be tested in assay buffer with 10% of DMSO • 10 μl of ATP (final concentration 1 μM cold, 0.35 μCi of ^33P-ATP) • 50 μl of Met kinase/substrate mixture in assay buffer; • (10 ng of enzyme/well, 50 ng of pAGLT/well)
Solutions Used: • Assay Buffer: • 50 mM HEPES • 3 mM magnesium chloride • 3 μM sodium orthovanadate • 3 mM manganese(II) chloride • 1 mM dithiothreitol (DTT) • pH=7.5 (to be set using sodium hydroxide) • Stop Solution: • 60 mM Titriplex III (EDTA) • ^33P-ATP: Perkin-Elmer; • Met kinase: Upstate, Cat. No. 14-526, Stock 1 μg/10 μl; spec. activity 954 U/mg; • Poly-Ala-Glu-Lys-Tyr, 6:2:5:1:Sigma Cat. No. P1152

T1 sequence (P08581 25-1390): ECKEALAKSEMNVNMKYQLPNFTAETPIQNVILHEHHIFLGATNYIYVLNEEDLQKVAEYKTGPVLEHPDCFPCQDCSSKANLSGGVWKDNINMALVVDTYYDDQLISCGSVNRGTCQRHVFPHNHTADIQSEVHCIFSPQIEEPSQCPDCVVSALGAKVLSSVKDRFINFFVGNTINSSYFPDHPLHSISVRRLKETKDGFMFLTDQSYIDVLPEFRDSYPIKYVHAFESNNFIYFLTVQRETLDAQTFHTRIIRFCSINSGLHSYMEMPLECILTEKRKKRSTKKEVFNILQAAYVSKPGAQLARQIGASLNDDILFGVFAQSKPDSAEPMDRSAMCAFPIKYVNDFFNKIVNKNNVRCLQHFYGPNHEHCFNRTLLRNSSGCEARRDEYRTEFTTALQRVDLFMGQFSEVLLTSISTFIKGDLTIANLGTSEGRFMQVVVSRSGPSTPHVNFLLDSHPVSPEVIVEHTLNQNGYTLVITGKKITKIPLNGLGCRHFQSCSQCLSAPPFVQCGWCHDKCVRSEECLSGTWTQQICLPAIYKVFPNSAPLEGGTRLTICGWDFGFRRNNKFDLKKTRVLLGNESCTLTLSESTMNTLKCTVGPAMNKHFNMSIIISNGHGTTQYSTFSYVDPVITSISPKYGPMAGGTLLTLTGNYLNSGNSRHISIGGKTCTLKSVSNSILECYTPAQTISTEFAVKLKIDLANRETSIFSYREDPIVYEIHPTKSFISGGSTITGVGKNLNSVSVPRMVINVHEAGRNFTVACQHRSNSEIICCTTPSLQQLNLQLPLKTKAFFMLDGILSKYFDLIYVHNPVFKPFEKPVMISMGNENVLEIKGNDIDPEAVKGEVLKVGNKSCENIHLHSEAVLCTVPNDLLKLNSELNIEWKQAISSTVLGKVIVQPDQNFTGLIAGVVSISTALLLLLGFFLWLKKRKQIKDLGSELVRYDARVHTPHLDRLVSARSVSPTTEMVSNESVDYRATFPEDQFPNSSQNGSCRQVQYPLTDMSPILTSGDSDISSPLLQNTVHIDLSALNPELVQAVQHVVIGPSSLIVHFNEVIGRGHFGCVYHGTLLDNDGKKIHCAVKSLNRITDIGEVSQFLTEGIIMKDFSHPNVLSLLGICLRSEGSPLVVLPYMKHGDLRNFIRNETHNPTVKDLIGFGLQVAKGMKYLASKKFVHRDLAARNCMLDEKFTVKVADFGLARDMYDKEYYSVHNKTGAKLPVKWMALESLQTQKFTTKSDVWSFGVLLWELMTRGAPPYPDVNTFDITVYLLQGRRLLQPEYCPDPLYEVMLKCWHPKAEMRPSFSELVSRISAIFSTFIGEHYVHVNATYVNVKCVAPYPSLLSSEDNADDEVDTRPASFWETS

| Compound | IC50 |
| --- | --- |
| CN1CCC(CNC(=O)Nc2cccc(CN3N=C(c4ccc(Cl)cc4)CSC3=O)c2)C1 (centres unmarked) [Compound A1, 1-{3-[5-(4-chlorophenyl)-2-oxo-6H-1,3,4-thiadiazin-3-ylmethyl]phenyl}-3-(1-methylpyrrolidin-3-ylmethyl)urea] | 10 to 1000 nM |
| CCN(CC)CCCNC(=O)Nc1cccc(CN2N=C(c3ccc(Cl)cc3)CSC2=O)c1 [Compound A3] | 10 to 1000 nM |
| O=C(NCCO)Nc1cccc(CN2N=C(c3ccc(Cl)cc3)CSC2=O)c1 [Compound A5] | 10 to 1000 nM |
| CNCCNC(=O)Nc1cccc(CN2N=C(c3ccc(C#N)cc3)CSC2=O)c1 [Compound A10] | 10 to 1000 nM |

Results, then the compound that gave them:

| IC50 | Compound |
| --- | --- |
| 10 to 1000 nM | CCNC(=O)Nc1cccc(CN2N=C(c3cc(Cl)ccc3O)CSC2=O)c1 [Compound A2] |
| 10 to 1000 nM | C[C@H](O)CNC(=O)Nc1cccc(CN2N=C(c3ccc(Cl)cc3)CSC2=O)c1 [Compound A4] |
| 10 to 1000 nM | CCOC(=O)C(=O)Nc1cccc(CN2N=C(c3ccc(Cl)cc3)CSC2=O)c1 [Compound A9, ethyl N-{3-[5-(4-chlorophenyl)-2-oxo-6H-1,3,4-thiadiazin-3-ylmethyl]phenyl}oxalaminate] |
| 10 to 1000 nM | CN(C)C(=O)Nc1cccc(CN2N=C(c3cc(Cl)ccc3O)CSC2=O)c1 [Compound A12] |
